Assay results from patent US10794898B2, “High-throughput, high-precision methods for detecting protein structural changes in living cells” (REGENTS OF THE UNIVERSITY OF MINNESOTA, priority 2014, dated 2020).
pKd: −log10 of the molar value. Like-named read-outs stand apart in the source and are kept apart here.

How the values were obtained:
SERCA = target: T1, SERCA (Sus scrofa, UniProt P11607); test: Enzyme-coupled, NADH-linked SERCA ATPase assay in pig cardiac SR; type: biochemical; design: inhibition of ATPase activity: dose or concentration left out as unconfirmed
T1 construct: Cardiac sarcoplasmic reticulum (SR) vesicles were prepared from the ventricular tissue of swine hearts; from tissue; host or cells: ventricular tissue of swine hearts (cardiac SR vesicles)
T1 sequence (P11607 1-997 isoform P11607-2): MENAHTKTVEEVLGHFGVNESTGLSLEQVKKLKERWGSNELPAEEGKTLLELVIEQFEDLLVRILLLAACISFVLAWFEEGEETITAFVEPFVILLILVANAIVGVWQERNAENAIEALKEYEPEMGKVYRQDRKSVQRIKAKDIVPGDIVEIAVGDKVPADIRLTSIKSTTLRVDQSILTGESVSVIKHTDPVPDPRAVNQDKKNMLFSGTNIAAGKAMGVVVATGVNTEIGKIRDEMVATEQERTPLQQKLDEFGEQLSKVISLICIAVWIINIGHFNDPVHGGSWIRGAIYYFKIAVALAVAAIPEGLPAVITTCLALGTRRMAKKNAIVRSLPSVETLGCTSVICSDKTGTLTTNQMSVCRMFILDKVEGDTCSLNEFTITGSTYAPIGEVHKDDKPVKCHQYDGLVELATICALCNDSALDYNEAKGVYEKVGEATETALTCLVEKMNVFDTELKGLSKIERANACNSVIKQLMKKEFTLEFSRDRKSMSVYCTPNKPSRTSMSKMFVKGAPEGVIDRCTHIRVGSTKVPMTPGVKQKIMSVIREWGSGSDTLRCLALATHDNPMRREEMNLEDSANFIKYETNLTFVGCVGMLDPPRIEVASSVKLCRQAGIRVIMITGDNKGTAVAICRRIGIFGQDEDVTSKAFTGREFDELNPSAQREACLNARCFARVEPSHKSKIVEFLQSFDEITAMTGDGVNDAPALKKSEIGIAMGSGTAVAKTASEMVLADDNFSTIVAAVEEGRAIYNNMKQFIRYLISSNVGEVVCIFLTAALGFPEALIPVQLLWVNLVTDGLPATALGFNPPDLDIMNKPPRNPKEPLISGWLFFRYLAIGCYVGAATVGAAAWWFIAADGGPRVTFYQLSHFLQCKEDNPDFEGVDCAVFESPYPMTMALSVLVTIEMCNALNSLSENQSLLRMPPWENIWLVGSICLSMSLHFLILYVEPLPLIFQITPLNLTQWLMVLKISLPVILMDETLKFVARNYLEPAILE
Protocol: An enzyme-coupled, NADH-linked ATPase assay was used to measure SERCA ATPase activity (Stergiopoulos et al., BMC Health Serv Res 2012, 12, 345). in 96-well microplates. Each well contained 50 mM MOPS (pH 7.0), 100 mM KCl, 5 mM MgCl2, 1 mM EGTA, 0.2 mM NADH, 1 mM phosphoenol pyruvate, 10 IU/mL of pyruvate kinase, 10 IU/mL of lactate dehydrogenase, 3.5 μg/mL of the calcium ionophore A23187, and CaCl2 added to set free [Ca^2+] to the desired values. (Mueller et al., Biochemistry 2004, 43, 8754-8765). 2.5 μg of cardiac SR or 25 μg of HEK cell homogenate were used in each well to correct for the difference in SERCA content. The assay was started upon the addition of ATP at a final concentration of 5 mM and read in a SpectraMax Plus microplate spectrophotometer (Molecular Devices, Sunnyvale, Calif.), bring the total volume to 200 μL. Results were normalized to SERCA content determined from immunoblotting.
Effects of known activators and LOPAC hits on SERCA ATPase activity was evaluated in pig cardiac SR. Compounds were dissolved in DMSO, and adjusted to […] the concentrations used in the final assay wells. 4 μL prediluted compounds were added to each well to keep the final [DMSO] at 2% (v/v).

2-color SERCA2a (2CS) = target: T2, 2-color SERCA2a (2CS) (Canis lupus familiaris, UniProt O46674, INS508[…]); test: Live-cell 2-color SERCA (2CS) FRET assay in fluorescence lifetime plate reader; type: cell-based, canine; conditions: for LOPAC library screen outcome (2CS GFP lifetime outside 3SD window): hit = lifetime change more than 3 SD from DMSO controls, repeated
T2 construct: expressed in transfected cells
Text: Using recombinant DNA technology, the gene for TagRFP was fused to the N-terminus of canine SERCA2a. This fusion position is in the A-domain of the pump. EGFP was fused as an intrasequence tag before residue 509 in the N-domain. The structural model presented in FIG. 1A corresponds to the isoform SERCA1a, which is 84% homologous to SERCA2a. Hou et al. evaluated several intrasequence fusion positions chosen using x-ray crystal structures of SERCA1a to identify unstructured loops and predict large relative distance changes without affecting SERCA function. (Hou et al., PLoS ONE 2012, 7, e40369). The 509 site was chosen because the labeled construct had normal SERCA activity and its intramolecular FRET signal was sensitive to SERCA structural state, as shown below.
(§1) The 96-well plate format LOPAC library was reformatted into four 384-well polystyrene mother plates (Corning, Corning, N.Y.) using a Biomek FX liquid handler (Beckman Coulter, Brea, Calif.), and diluted to 500 μM using DMSO. Column 1, 22, 23 and 24 were loaded with DMSO for in-plate no-compound controls. The LOPAC compounds were distributed in column 2 through 21. Each plate contains 64 wells of DMSO controls, and 320 wells of compounds from the LOPAC library. Black well, high-quality-glass bottom Greiner 384-well microplates (PN 781892) were selected as the assay plates for their optical clarity, low autofluorescence, and low inter-well cross-talks. Compounds (1 μL) were transferred from the mother plates into assay plates using a Mosquito HV liquid handler (TTP Labtech Ltd, UK). The plates were sealed and stored at −20° C. until use. On the day of screening, the plates were equilibrated to room temperature (25° C.). Stable GFP-SERCA2a (donor only control) or 2CS cells were lifted from a 225 cm^2 flask by incubating with TrypLE (Invitrogen) for 5 min. Cells were collected and pelleted for 5 min at 500 g and resuspended in 10 mL PBS, then analyzed on a Countess cell counter (Invitrogen) and diluted to 1×10^6 cells/mL. 49 μL Cells were plated on top of the compounds by a FlexDrop IV reagent dispenser (PerkinElmer, Waltham, Mass.). Assay plates were spun for 1 min at 200 g and allowed to incubate at RT for 20 min before reading on a fluorescence lifetime plate reader (constructed in collaboration with Fluorescence Innovations, Inc., Minneapolis, Minn.). GFP fluorescence was excited with a 473 nm microchip laser from Concepts Research Corporation (Belgium, Wis.) and emission was filtered with 490 nm long pass and 520/35 nm band pass filters from Semrock (Rochester, N.Y.).
Time-resolved fluorescence waveforms for each well were fitted to single-exponential decays using global analysis software. Each plate contained 64 control wells with only DMSO, and a hit was defined as a compound that changed the 2CS donor lifetime by more than three times the standard deviation (SD) relative to the controls. Fluorescent compounds that caused the intensity of both untransfected HEK cells and 2CS cells to be more than 3SD outside the mean of the 64 controls on a plate were excluded from the hits as likely false positives.

[1] = tested on: Ca2+ uptake into microsomes; conditions: cited from earlier work
Plasmodium falciparum = conditions: cited from earlier work
GFP-SERCA2a = test: Donor-only control: GFP lifetime in GFP-SERCA2a cells; type: cell-based, canine
Protocol: as §1, with “Compounds (1 μL) were transferred from the mother plates into assay plates using a Mosquito HV liquid handler (TTP Labtech Ltd, UK). The plates were sealed and stored at −20° C. until use. On the day of screening, the plates were equilibrated to room temperature (25° C.). Stable GFP-SERCA2a (donor only control) or 2CS cells were lifted from a 225 cm^2 flask by incubating with TrypLE (Invitrogen) for 5 min.” left out, “49 μL Cells were plated on top of the compounds by a FlexDrop IV reagent dispenser (PerkinElmer, Waltham, Mass.).” left out
Time-resolved fluorescence waveforms for each well were fitted to single-exponential decays using global analysis software. […]

## Cc1ccc2cccc(NC(=O)c3ccc(OC(C)C)cc3)c2n1 [CDN1163]
SERCA
  mode of SERCA activation: increasing the activity at saturating [Ca^2+]
2-color SERCA2a (2CS); dose-response, live cells
  effect on FRET between GFP and RFP in 2CS: reduce FRET

## CC(=O)C1=C(O)[C@@H]2[C@H]3c4c[nH]c5cccc(c45)C[C@H]3C(C)(C)N2C1=O [CPA, cyclopiazonic acid]
SERCA
  pKd: ~7.40

## [Cl-].c1ccc2c(c1)[I+]c1ccccc1-2 [DPI, diphenyline iodonium chloride]
[1]; 30 µM
  inhibition of Ca2+ uptake into microsomes: 18%
[1]; 100 µM
  inhibition of Ca2+ uptake into microsomes: 32%
SERCA
  inhibition of ATPase activity: < 50%
SERCA; below 10 μM
  functional (ATPase) inhibition: very little functional inhibition
2-color SERCA2a (2CS); basal FRET 0.12
  FRET efficiency at maximal effect: 0.10
2-color SERCA2a (2CS)
  LOPAC library screen outcome (2CS GFP lifetime outside 3SD window): reproducible hits
2-color SERCA2a (2CS); maximal effect in dose-response
  maximal reduction of FRET: ~18%
Plasmodium falciparum
  IC50 for inhibition of parasite growth: submicromolar

## C/C=C(/C)C(=O)O[C@H]1C(C)=C2[C@H]([C@@H]1OC(=O)CCCCCCC)[C@@](C)(OC(C)=O)C[C@H](OC(=O)CCC)[C@@]1(O)[C@H]2OC(=O)[C@@]1(C)O [TG, thapsigargin]
SERCA; at 7.5 nM
  ATPase activity: nearly ablated
SERCA
  effect on ATPase activity at the highest concentrations tested: completely inhibit ATPase activity
2-color SERCA2a (2CS); at 7.5 nM
  reduction of FRET: ~33%
2-color SERCA2a (2CS)
  LOPAC library screen outcome (2CS GFP lifetime outside 3SD window): reproducible hits

## COc1cc(/C=C(\C#N)C(=O)Nc2nnc(C(F)(F)F)s2)ccc1OCc1ccc(C(F)(F)F)cc1C(F)(F)F [XCT 790]
SERCA
  effect on ATPase activity at the highest concentrations tested: completely inhibit ATPase activity
2-color SERCA2a (2CS); dose-response assay, concentration not given
  reduction of FRET: ~42%
2-color SERCA2a (2CS)
  LOPAC library screen outcome (2CS GFP lifetime outside 3SD window): reproducible hits
GFP-SERCA2a
  effect on the lifetime of GFP-SERCA2a alone: no effect
